In PubChem BioAssay AID1259407 (Chemical Carcinogenesis Research Information System (CCRIS), 2018):
Activity calls are given as the source filed them. How the calls were made is not given here.

Test system: CCRIS mutagenicity, Ames/micronucleus/aberration tests
Test: CCRIS mutagenicity studies
[1] = Test System: AMES SALMONELLA TYPHIMURIUM, Strain/Indicator: TA98, Metabolic Activation: NONE, Method: PREINCUBATION
[2] = Test System: AMES SALMONELLA TYPHIMURIUM, Strain/Indicator: TA100, Metabolic Activation: NONE, Method: PREINCUBATION
[3] = Test System: AMES SALMONELLA TYPHIMURIUM, Strain/Indicator: TA1535, Metabolic Activation: NONE, Method: STANDARD PLATE
[4] = Test System: AMES SALMONELLA TYPHIMURIUM, Strain/Indicator: TA98, Metabolic Activation: RAT, LIVER, S-9, AROCLOR 1254, Method: PREINCUBATION
[5] = Test System: AMES SALMONELLA TYPHIMURIUM, Strain/Indicator: TA100, Metabolic Activation: RAT, LIVER, S-9, AROCLOR 1254, Method: PREINCUBATION

For `OCCOCCO`, the mutagenic call (Test System: AMES SALMONELLA TYPHIMURIUM, Strain/Indicator: TA97A, Metabolic Activation: NONE) was “inactive; negative”, the mutagenic call (Test System: AMES SALMONELLA TYPHIMURIUM, Strain/Indicator: TA97A, Metabolic Activation: RAT, LIVER, S-9, AROCLOR 1254) was “inactive; negative” and the mutagenic call (Test System: AMES SALMONELLA TYPHIMURIUM, Strain/Indicator: TA98, Metabolic Activation: HAMSTER, LIVER, S-9, AROCLOR 1254 (10%), Method: PREINCUBATION) was “inactive; negative”. The mutagenic call (Test System: AMES SALMONELLA TYPHIMURIUM, Strain/Indicator: TA98, Metabolic Activation: NONE) was “inactive; negative”, the mutagenic call [1] was “inactive; negative” and the mutagenic call (Test System: AMES SALMONELLA TYPHIMURIUM, Strain/Indicator: TA98, Metabolic Activation: RAT, LIVER, S-9, AROCLOR 1254) was “inactive; negative”. The mutagenic call (Test System: AMES SALMONELLA TYPHIMURIUM, Strain/Indicator: TA98, Metabolic Activation: RAT, LIVER, S-9, AROCLOR 1254 (10%), Method: PREINCUBATION) was “inactive; negative”, the mutagenic call (Test System: AMES SALMONELLA TYPHIMURIUM, Strain/Indicator: TA100, Metabolic Activation: HAMSTER, LIVER, S-9, AROCLOR 1254 (10%), Method: PREINCUBATION) was “inactive; negative” and the mutagenic call (Test System: AMES SALMONELLA TYPHIMURIUM, Strain/Indicator: TA100, Metabolic Activation: NONE) was “inactive; negative”. The mutagenic call [2] was “inactive; negative”, the mutagenic call (Test System: AMES SALMONELLA TYPHIMURIUM, Strain/Indicator: TA100, Metabolic Activation: RAT, LIVER, S-9, AROCLOR 1254) was “inactive; negative” and the mutagenic call (Test System: AMES SALMONELLA TYPHIMURIUM, Strain/Indicator: TA100, Metabolic Activation: RAT, LIVER, S-9, AROCLOR 1254 (10%), Method: PREINCUBATION) was “inactive; negative”. For the same compound, the mutagenic call (Test System: AMES SALMONELLA TYPHIMURIUM, Strain/Indicator: TA102, Metabolic Activation: NONE) was “inactive; negative”, the mutagenic call (Test System: AMES SALMONELLA TYPHIMURIUM, Strain/Indicator: TA102, Metabolic Activation: RAT, LIVER, S-9, AROCLOR 1254) was “inactive; negative” and the mutagenic call (Test System: AMES SALMONELLA TYPHIMURIUM, Strain/Indicator: TA1535, Metabolic Activation: HAMSTER, LIVER, S-9, AROCLOR 1254 (10%), Method: PREINCUBATION) was “inactive; negative”. The mutagenic call (Test System: AMES SALMONELLA TYPHIMURIUM, Strain/Indicator: TA1535, Metabolic Activation: NONE, Method: PREINCUBATION) was “inactive; negative”, the mutagenic call (Test System: AMES SALMONELLA TYPHIMURIUM, Strain/Indicator: TA1535, Metabolic Activation: RAT, LIVER, S-9, AROCLOR 1254 (10%), Method: PREINCUBATION) was “inactive; negative” and the mutagenic call (Test System: AMES SALMONELLA TYPHIMURIUM, Strain/Indicator: TA1537, Metabolic Activation: HAMSTER, LIVER, S-9, AROCLOR 1254 (10%), Method: PREINCUBATION) was “inactive; negative”. The mutagenic call (Test System: AMES SALMONELLA TYPHIMURIUM, Strain/Indicator: TA1537, Metabolic Activation: NONE, Method: PREINCUBATION) was “inactive; negative” and the mutagenic call (Test System: AMES SALMONELLA TYPHIMURIUM, Strain/Indicator: TA1537, Metabolic Activation: RAT, LIVER, S-9, AROCLOR 1254 (10%), Method: PREINCUBATION) was “inactive; negative”.

`COc1ccc2c(CBr)cc(=O)oc2c1` was tested, and the mutagenic call [1] was “inactive; negative”, the mutagenic call (Test System: AMES SALMONELLA TYPHIMURIUM, Strain/Indicator: TA98, Metabolic Activation: RAT, LIVER, S-9, PCB, Method: PREINCUBATION) was “inactive; negative” and the mutagenic call [2] was “inactive; negative”. The mutagenic call (Test System: AMES SALMONELLA TYPHIMURIUM, Strain/Indicator: TA100, Metabolic Activation: RAT, LIVER, S-9, PCB, Method: PREINCUBATION) was “inactive; negative” and the mutagenic call (Test System: E. COLI, Strain/Indicator: WP2 UVRA, Metabolic Activation: NONE, Method: PREINCUBATION) was “inactive; negative”.

With `Oc1ccc2c(O)c3ccccc3cc2c1O` the mutagenic call (Test System: AMES SALMONELLA TYPHIMURIUM, Strain/Indicator: TA98, Metabolic Activation: RAT, LIVER, S-9, AROCLOR 1254, Method: STANDARD PLATE) was “inactive; negative”, the mutagenic call (Test System: AMES SALMONELLA TYPHIMURIUM, Strain/Indicator: TA100, Metabolic Activation: NONE, Method: STANDARD PLATE) was “inactive; negative” and the mutagenic call (Test System: AMES SALMONELLA TYPHIMURIUM, Strain/Indicator: TA100, Metabolic Activation: RAT, LIVER, S-9, AROCLOR 1254, Method: STANDARD PLATE) was “inactive; negative”. The mutagenic call [3] was “inactive; negative”, the mutagenic call (Test System: AMES SALMONELLA TYPHIMURIUM, Strain/Indicator: TA1535, Metabolic Activation: RAT, LIVER, S-9, AROCLOR 1254, Method: STANDARD PLATE) was “inactive; negative” and the mutagenic call (Test System: AMES SALMONELLA TYPHIMURIUM, Strain/Indicator: TA1537, Metabolic Activation: NONE, Method: STANDARD PLATE) was “active; positive”. The mutagenic call (Test System: AMES SALMONELLA TYPHIMURIUM, Strain/Indicator: TA1538, Metabolic Activation: NONE, Method: STANDARD PLATE) was “inactive; negative” and the mutagenic call (Test System: AMES SALMONELLA TYPHIMURIUM, Strain/Indicator: TA1538, Metabolic Activation: RAT, LIVER, S-9, AROCLOR 1254, Method: STANDARD PLATE) was “inactive; negative”.

With `CCCN(N=O)C(N)=O` the mutagenic call [3] was “active; positive”, the mutagenic call (Test System: CHINESE HAMSTER V-79, Strain/Indicator: V-79/6-THIOGUANINE, Metabolic Activation: NONE, Method: FLASK ASSAY) was “active; positive” and the mutagenic call (Test System: E. COLI B, Strain/Indicator: H/R30R, Metabolic Activation: NONE) was “active; positive”. The mutagenic call (Test System: E. COLI B, Strain/Indicator: HS30R, Metabolic Activation: NONE) was “active; positive”, the mutagenic call (Test System: E. COLI, Strain/Indicator: WP2, Metabolic Activation: NONE, Method: STANDARD PLATE) was “active; positive” and the mutagenic call (Test System: E. COLI, Strain/Indicator: WP2 UVRA, Metabolic Activation: NONE, Method: STANDARD PLATE) was “active; positive”.

`CCCN(CCCO)N=O` was tested, and the mutagenic call (Test System: CHINESE HAMSTER V-79, Strain/Indicator: V-79/OUABAIN, Metabolic Activation: HAMSTER, HEPATOCYTES, Method: CELL-MEDIATED) was “inactive; negative”.

In the case of `COc1ccc2nc(N)[nH]c2c1`, the mutagenic call [4] is reported as “inactive; negative” and the mutagenic call [5] is reported as “inactive; negative”.

With `Nc1cc(N)c(N=Nc2ccc(S(=O)(=O)O)cc2S(=O)(=O)O)cc1N=Nc1ccc(-c2ccc(N/N=C3\C=CC(=O)C(C(=O)O)=C3)cc2)cc1` the mutagenic call (Test System: AMES SALMONELLA TYPHIMURIUM, Strain/Indicator: TA98, Metabolic Activation: HAMSTER, LIVER, S-9, Method: PREINCUBATION (PRIVAL METHOD)) was “active; positive”.

In the case of `Cc1ccc(OC(=O)N(C)N=O)cc1C`, the mutagenic call (Test System: E. COLI WP2, Strain/Indicator: WP2, Metabolic Activation: NONE, Method: STANDARD PLATE) is reported as “active; positive”.

In the case of `CN(CC(N)=O)C(=O)N(CCCl)N=O`, the mutagenic call (Test System: Mouse lymphoma, Strain/Indicator: L5178Y (tk+/tk-), Metabolic Activation: None, Method: Suspension/plate) is reported as “active; positive” and the mutagenic call (Test System: Mouse lymphoma, Strain/Indicator: L5178Y (tk+/tk-), Metabolic Activation: Rat, Liver, S-9, Aroclor 1254, Method: Suspension/plate) is reported as “active; positive”.

In the case of `N=C(N)c1ccccc1`, the mutagenic call (Test System: AMES SALMONELLA TYPHIMURIUM, Strain/Indicator: TA98, Metabolic Activation: CO631 CELLS, Method: PREINCUBATION) is reported as “inactive; negative”, the mutagenic call [1] is reported as “inactive; negative” and the mutagenic call (Test System: AMES SALMONELLA TYPHIMURIUM, Strain/Indicator: TA98, Metabolic Activation: RABBIT, LIVER, S-9, Method: PREINCUBATION) is reported as “inactive; negative”. The mutagenic call (Test System: AMES SALMONELLA TYPHIMURIUM, Strain/Indicator: TA98, Metabolic Activation: RAT HEPATOCYTES, Method: PREINCUBATION) was “inactive; negative”, the mutagenic call (Test System: AMES SALMONELLA TYPHIMURIUM, Strain/Indicator: TA98, Metabolic Activation: RAT, LIVER, S-9, AROCLOR 1254, ATP, Method: PREINCUBATION) was “inactive; negative” and the mutagenic call [4] was “inactive; negative”. The mutagenic call (Test System: AMES SALMONELLA TYPHIMURIUM, Strain/Indicator: TA100, Metabolic Activation: RABBIT, LIVER, S-9, Method: PREINCUBATION) was “inactive; negative”, the mutagenic call (Test System: AMES SALMONELLA TYPHIMURIUM, Strain/Indicator: TA100, Metabolic Activation: RAT HEPATOCYTES, Method: PREINCUBATION) was “inactive; negative” and the mutagenic call (Test System: AMES SALMONELLA TYPHIMURIUM, Strain/Indicator: TA100, Metabolic Activation: RAT, LIVER, S-9, AROCLOR 1254, ATP, Method: PREINCUBATION) was “inactive; negative”. For the same compound, the mutagenic call [5] was “inactive; negative”.

With `O=C(N=c1sn(C(=O)c2cccc([N+](=O)[O-])c2)c2ccc([N+](=O)[O-])cc12)c1cccc([N+](=O)[O-])c1` the mutagenic call (Test System: AMES SALMONELLA TYPHIMURIUM, Strain/Indicator: TA100, Metabolic Activation: S-9, Method: STANDARD PLATE) was “active; positive”.
